Literature values, collected in patent US5770699A, “Process for production of inhibited forms of activated blood factors” (COR Therapeutics, Inc., priority 1996, dated 1998).

Molecular target: Factor Xa
Conditions: transient (reversible) inhibition of Factor Xa; stated as known; cited from earlier work

N=C(N)c1ccc2oc(CCc3cc4cc(C(=N)N)ccc4o3)cc2c1 [1,2-bis(5-amidino 2-benzofuranyl) ethane]
Ki: 570 nM
